Assay results reported in patent US11046672B2, “Indolinones compounds and their use in the treatment of fibrotic diseases” (RESPIVERT LIMITED, priority 2015, dated 2021).
Where two headings read alike, the source gives them in different places.

Experiments:
PDGFRβ [1] = target: T1, PDGFRβ (Homo sapiens (Human), UniProt P09619); assay: PDGF-BB induced phosphorylation of PDGFRβ in fibroblasts (MRC5 cells, HTRF); format: cell-based; details: MRC5 cells; n = 1 unless otherwise indicated; read-out: PDGFBB-induced PDGFRβ phosphorylation in MRC5 cells (IC50)
MRC5 cells = assay: Cell viability assay in MRC5 cells (MTT)
PDGFRβ [2] = target: T1, PDGFRβ; details: read-out: Ki PDGFRβ; mean, n = 2 unless otherwise indicated
PAMPA permeability assay = format: in vitro ADME; details: PAMPA; for recovery at 5 hr, 10 μM: pH 7, PAMPA, donor and acceptor compartments; for Papp at 5 h, 10 μM: pH 7, pH 7, 10 μM
[3] = Pharmacokinetic measurements in rats (intravenous and intra-tracheal dosing); format: in vivo; details: rat
[4] = Pharmacokinetic measurements in mice (intravenous and intra-nasal dosing); format: in vivo; details: mouse; for concentration at 0.1 h / concentration at 1.5 h / concentration at 24 h: lung, read-out: lung concentration (nM) at time (h)

T1 sequence (P09619 33-1106): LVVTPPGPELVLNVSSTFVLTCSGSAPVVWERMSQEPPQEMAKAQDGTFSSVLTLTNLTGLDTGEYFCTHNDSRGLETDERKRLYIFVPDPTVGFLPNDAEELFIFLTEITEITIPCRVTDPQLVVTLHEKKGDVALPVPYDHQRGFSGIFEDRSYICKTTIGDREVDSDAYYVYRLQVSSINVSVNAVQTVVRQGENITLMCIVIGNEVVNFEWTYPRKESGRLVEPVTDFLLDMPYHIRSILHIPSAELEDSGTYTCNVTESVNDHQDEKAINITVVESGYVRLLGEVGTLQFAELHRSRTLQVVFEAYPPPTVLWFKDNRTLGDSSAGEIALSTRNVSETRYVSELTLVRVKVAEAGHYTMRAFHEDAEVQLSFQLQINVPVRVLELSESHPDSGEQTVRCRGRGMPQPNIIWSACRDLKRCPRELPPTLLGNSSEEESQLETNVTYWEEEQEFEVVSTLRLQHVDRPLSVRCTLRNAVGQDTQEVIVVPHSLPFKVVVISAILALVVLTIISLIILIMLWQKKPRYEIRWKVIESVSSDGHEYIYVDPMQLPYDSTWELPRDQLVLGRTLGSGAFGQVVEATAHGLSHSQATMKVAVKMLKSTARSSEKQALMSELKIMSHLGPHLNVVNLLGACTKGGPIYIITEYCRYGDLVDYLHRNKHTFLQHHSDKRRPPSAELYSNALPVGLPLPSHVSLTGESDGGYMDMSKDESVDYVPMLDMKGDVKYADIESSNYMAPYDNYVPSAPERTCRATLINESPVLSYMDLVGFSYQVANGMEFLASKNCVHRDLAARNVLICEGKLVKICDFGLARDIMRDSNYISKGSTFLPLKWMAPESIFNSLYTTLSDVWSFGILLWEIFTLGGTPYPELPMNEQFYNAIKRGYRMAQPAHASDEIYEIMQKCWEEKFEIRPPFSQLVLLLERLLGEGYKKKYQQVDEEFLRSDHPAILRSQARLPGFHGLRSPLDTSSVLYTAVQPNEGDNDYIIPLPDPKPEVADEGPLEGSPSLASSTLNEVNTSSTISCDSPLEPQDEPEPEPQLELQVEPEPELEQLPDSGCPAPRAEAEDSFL

CCN(OCCN1CCNCC1)C(=O)c1ccc(N/C(=C2\C(=O)Nc3cc(C(=O)OC)c(C)cc32)c2ccccc2)cc1 [Example 68]
IC50 (PDGFRβ [1]): 16.5 nM

COC(=O)c1cc2c(cc1C)/C(=C(/Nc1ccc(C(=O)N(C)OCCN3CC4CC(C3)N4)cc1)c1ccccc1)C(=O)N2 [Example 66]
IC50 (PDGFRβ [1]): 15.5 nM | Cell viability at 100 nM (%) (MRC5 cells): 102.8% | Cell viability at 300 nM (%) (MRC5 cells): 92.9% | Cell viability at 1000 nM (%) (MRC5 cells): 53.8% | Ki (PDGFRβ [2]): 16 nM

COC(=O)c1cc2c(cc1C)/C(=C(/Nc1ccc(S(=O)(=O)NOCCN(C)C)cc1)c1ccccc1)C(=O)N2 [Example 48]
recovery at 5 hr, 10 μM (PAMPA permeability assay): 67.4% | Papp at 5 h, 10 μM (PAMPA permeability assay): 0.22 ×10⁻⁶ cm/s | Cell viability at 100 nM (%) (MRC5 cells): 132.6% | Cell viability at 300 nM (%) (MRC5 cells): 121% | Cell viability at 1000 nM (%) (MRC5 cells): 103.5%

COC(=O)c1ccc2c(c1)NC(=O)/C2=C(\Nc1ccc(N(C)C(=O)CN2CCN(C)CC2)cc1)c1ccccc1 [Nintedanib, reference compound]
Cell viability at 100 nM (%) (MRC5 cells): 104.6% | Cell viability at 300 nM (%) (MRC5 cells): 105.6% | Cell viability at 1000 nM (%) (MRC5 cells): 92.7% | i.t. BAV (%) ([3]; i.t. dosing (i.t. dose 0.1-0.5 per compound)): 43% | BAL % administered dose at time (h) ([3]; i.t. dosing, 0.1 h): 2% | BAL % administered dose at time (h) ([3]; i.t. dosing, 1.5 h): 1% | BAL % administered dose at time (h) ([3]; i.t. dosing, 24 h): 0.1% | BAL % administered dose at time (h) ([3]; i.v. dosing, 0.1 h): 0.06% | BAL % administered dose at time (h) ([3]; i.v. dosing, 1.5 h): 0.03% | BAL % administered dose at time (h) ([3]; i.v. dosing, 24 h): BQL | concentration at 0.1 h ([4]; male, C57BL/6J, iv, i.v. dosing, 0.1 h, mean): 2380 nM | concentration at 1.5 h ([4]; male, C57BL/6J, iv, i.v. dosing, 1.5 h, mean): 1340 nM | concentration at 24 h ([4]; male, C57BL/6J, iv, i.v. dosing, mean): 10 nM | concentration at 0.1 h ([4]; male, C57BL/6J, other: intra-nasal, i.n. dosing, 0.1 h, mean): 2760 nM | concentration at 1.5 h ([4]; male, C57BL/6J, other: intra-nasal, i.n. dosing, 1.5 h, mean): 804 nM | concentration at 24 h ([4]; male, C57BL/6J, other: intra-nasal, i.n. dosing, mean): 15 nM | clearance ([4]; male, C57BL/6J, whole blood, iv): 81 mL/min/kg | MRT ([4]; male, C57BL/6J, whole blood, iv, i.v. dosing, mean): 2 h | Vd ([4]; male, C57BL/6J, whole blood, iv, i.v. dosing, mean, read-out: Vss): 10 L/kg | half-life ([4]; male, C57BL/6J, whole blood, iv, i.v. dosing, mean, read-out: t½ (converted)): 2 h | BAL % administered dose at time (h) ([4]; i.n. dosing, 0.1 h): 0.5% | BAL % administered dose at time (h) ([4]; i.n. dosing, 1.5 h): 0.1% | BAL % administered dose at time (h) ([4]; i.v. dosing, 0.1 h): 0.3% | BAL % administered dose at time (h) ([4]; i.v. dosing, 1.5 h): 0.03%

COC(=O)c1ccc2c(c1)NC(=O)/C2=C(\Nc1ccc(C(=O)N(CCN(C)C)OC)cc1)c1ccccc1 [Example 23]
recovery at 5 hr, 10 μM (PAMPA permeability assay): 51.8% | Papp at 5 h, 10 μM (PAMPA permeability assay): 20 ×10⁻⁶ cm/s | Cell viability at 100 nM (%) (MRC5 cells): 93.1% | Cell viability at 300 nM (%) (MRC5 cells): 85.9% | Cell viability at 1000 nM (%) (MRC5 cells): 67.9% | Ki (PDGFRβ [2]): 12.2 nM

CNC(=O)CN1CCN(CCONC(=O)c2ccc(N/C(=C3\C(=O)Nc4cc(C(=O)OC)c(C)cc43)c3ccccc3)cc2)CC1 [Example 73]
Cell viability at 100 nM (%) (MRC5 cells): 82.9% | Cell viability at 300 nM (%) (MRC5 cells): 104% | Cell viability at 1000 nM (%) (MRC5 cells): 96.8%

COC(=O)c1ccc2c(c1)NC(=O)/C2=C(\Nc1ccc(C(=O)N(C)OCCN2CCN(C)CC2)cc1)c1ccccc1 [Example 14]
recovery at 5 hr, 10 μM (PAMPA permeability assay): 57.2% | Papp at 5 h, 10 μM (PAMPA permeability assay): 0.434 ×10⁻⁶ cm/s | Cell viability at 100 nM (%) (MRC5 cells): 110.8% | Cell viability at 300 nM (%) (MRC5 cells): 96.9% | Cell viability at 1000 nM (%) (MRC5 cells): 87.5% | Ki (PDGFRβ [2]): 11.1 nM

COC(=O)c1ccc2c(c1)NC(=O)/C2=C(\Nc1ccc(C(=O)NOCCN(C)CCO)cc1)c1ccccc1 [Example 45]
IC50 (PDGFRβ [1]): 27.2 nM | Cell viability at 100 nM (%) (MRC5 cells): 98.9% | Cell viability at 300 nM (%) (MRC5 cells): 104.7% | Cell viability at 1000 nM (%) (MRC5 cells): 80.7% | Ki (PDGFRβ [2]): 14.1 nM

COC(=O)c1cc2c(cc1C)/C(=C(/Nc1ccc(C(=O)N(C)OCCN3CCN[C@@H](C)C3)cc1)c1ccccc1)C(=O)N2 [Example 62]
recovery at 5 hr, 10 μM (PAMPA permeability assay): 72.8% | Papp at 5 h, 10 μM (PAMPA permeability assay): 0.00628 ×10⁻⁶ cm/s | Cell viability at 100 nM (%) (MRC5 cells): 80.7% | Cell viability at 300 nM (%) (MRC5 cells): 73.8% | Cell viability at 1000 nM (%) (MRC5 cells): −0.2%

COC(=O)c1cc2c(cc1C)/C(=C(/Nc1ccc(C(=O)N(OCCN3CCNCC3)C(C)C)cc1)c1ccccc1)C(=O)N2 [Example 69]
IC50 (PDGFRβ [1]): 14.3 nM | Cell viability at 100 nM (%) (MRC5 cells): 92.5% | Cell viability at 300 nM (%) (MRC5 cells): 93.1% | Cell viability at 1000 nM (%) (MRC5 cells): 74.0%

COCCN1CCN(CCONC(=O)c2ccc(N/C(=C3\C(=O)Nc4cc(C(=O)OC)ccc43)c3ccccc3)cc2)CC1 [Example 46]
IC50 (PDGFRβ [1]): 31.7 nM | Cell viability at 100 nM (%) (MRC5 cells): 120.7% | Cell viability at 300 nM (%) (MRC5 cells): 109.5% | Cell viability at 1000 nM (%) (MRC5 cells): 86.3% | Ki (PDGFRβ [2]): 28.1 nM

COC(=O)c1ccc2c(c1)NC(=O)/C2=C(\Nc1ccc(C(=O)N(C)OCCN(C)C)c(C)c1)c1ccccc1 [Example 22]
IC50 (PDGFRβ [1]): 6.68 nM | Cell viability at 100 nM (%) (MRC5 cells): 102% | Cell viability at 300 nM (%) (MRC5 cells): 74.1% | Cell viability at 1000 nM (%) (MRC5 cells): 39.2% | Ki (PDGFRβ [2]): 10 nM

CNC(=O)CN1CCN(CCON(C)C(=O)c2ccc(N/C(=C3\C(=O)Nc4cc(C(=O)OC)ccc43)c3ccccc3)cc2)CC1 [Example 71]
IC50 (PDGFRβ [1]): 23.2 nM
